Assay results as given in patent US9546150B2, “Substituted quinazolin-4-ones for inhibiting ubiquitin specific protease 7” (HYBRIGENICS SA, priority 2011, dated 2017).

What was measured:
[1] = test system: HCT116 colon cancer cells; experiment: HCT116 cell viability and proliferation assay (MTS); type: cell-based; details: Homo sapiens, HCT-116, HCT116, 72 hours, read-out: Cell viability (MTS): HCT116 GI50 Day 3
Experimental: HCT116 colon cancer cells were obtained from ATCC (American Type Culture Collection), and maintained in Mc Coy's 5A medium containing 10% FBS, 3 mM glutamine and 1% penicillin/streptomycin. Cells were incubated at 37° C. in a humidified atmosphere containing 5% CO2.
Cell viability was assayed using the MTS technique in 96-well culture plates (CellTiter 96® Aqueous Non-Radioactive Cell Proliferation Assay, Promega) according to the manufacturer's instructions. MTS (3-(4,5-dimethyl-thiazol-2-yl)-5-(3-carboxy-methoxyphenyl)-2-(4-sulfophenyl)-2H-tetra-zolium) is a MTT-derived tetrazolium that is reduced in metabolically active cells into a soluble, cell-permeant formazan. The amount of formazan, detected by its absorbance at 492 nm is proportional to the number of living, metabolically active cells.
10^3 HCT116 cells were seeded per well. 24 hours later, the medium was changed and the cells treated in triplicate with the concentrations of each compound from 100 μM to 50 nM. The compounds were diluted in 100% DMSO, whose final concentration on cells was kept at 0.5%.
Cells were incubated with the compounds for 72 hours, and their viability then assayed by the addition of MTS for 2 hours. Absorbance at 492 nm was measured directly from the 96-well culture plates. GI50 (Growth Inhibition 50) concentrations for each compound were calculated using a sigmoidal variable slope fit (Prism 4.0, Graphpad Softwares). Values represent mean of three independent experiments.

USP7 [2] = molecular target: T1, USP7 (Homo sapiens, UniProt Q93009); experiment: Direct binding to USP7 by ESI-MS; details: 50/50/1 H2O/CH3CN/HCOOH, Vc=120 V, Pi=4 mbar
T1 sequence (Q93009 whole entry): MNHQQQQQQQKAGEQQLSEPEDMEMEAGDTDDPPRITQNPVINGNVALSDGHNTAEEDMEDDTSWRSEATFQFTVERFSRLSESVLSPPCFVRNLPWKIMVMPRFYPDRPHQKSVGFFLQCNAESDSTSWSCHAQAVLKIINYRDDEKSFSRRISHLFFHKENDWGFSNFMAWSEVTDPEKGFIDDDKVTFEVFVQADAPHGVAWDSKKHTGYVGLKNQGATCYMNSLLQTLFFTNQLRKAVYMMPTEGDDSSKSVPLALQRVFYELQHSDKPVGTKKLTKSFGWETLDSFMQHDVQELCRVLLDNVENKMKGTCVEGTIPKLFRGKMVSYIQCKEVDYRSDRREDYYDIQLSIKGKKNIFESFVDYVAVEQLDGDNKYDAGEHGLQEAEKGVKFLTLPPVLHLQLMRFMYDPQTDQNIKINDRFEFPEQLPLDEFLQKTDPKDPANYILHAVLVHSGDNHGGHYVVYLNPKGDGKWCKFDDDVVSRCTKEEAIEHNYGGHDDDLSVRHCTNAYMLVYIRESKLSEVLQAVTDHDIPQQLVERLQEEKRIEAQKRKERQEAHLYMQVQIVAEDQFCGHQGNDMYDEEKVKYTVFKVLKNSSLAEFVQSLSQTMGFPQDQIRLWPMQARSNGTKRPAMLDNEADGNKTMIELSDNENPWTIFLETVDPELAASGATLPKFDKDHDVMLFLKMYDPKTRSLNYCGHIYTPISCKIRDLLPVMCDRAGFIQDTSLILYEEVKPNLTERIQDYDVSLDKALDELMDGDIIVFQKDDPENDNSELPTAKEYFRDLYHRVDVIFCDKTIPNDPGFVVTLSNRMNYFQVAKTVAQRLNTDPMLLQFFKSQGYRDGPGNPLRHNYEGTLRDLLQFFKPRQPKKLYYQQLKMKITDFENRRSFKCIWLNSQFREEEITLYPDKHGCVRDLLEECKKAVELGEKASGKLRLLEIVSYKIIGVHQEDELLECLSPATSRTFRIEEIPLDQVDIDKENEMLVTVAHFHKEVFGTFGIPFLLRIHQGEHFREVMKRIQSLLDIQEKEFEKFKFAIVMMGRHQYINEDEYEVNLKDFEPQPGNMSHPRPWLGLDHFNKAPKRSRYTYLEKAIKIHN

USP7 [3] = molecular target: T1, USP7; experiment: HAUbVS competition assay in HEK293 cell lysates, USP7; type: biochemical; details: for blocking of HAUbVS labeling of USP7 (anti-USP7 antibody): HEK293 cell lysates, 12.5-200 μM, dose-dependent; for anti-HA immunoblot band at the size corresponding to HA-Ub-VS-USP7: lysed HEK293 cells, different doses, no change of the other bands
USP10 = USP10 (Homo sapiens, UniProt Q14694); experiment: HAUbVS competition assay in HEK293 cell lysates, USP10; type: biochemical; details: 12.5-200 μM
Chain of USP10 (Q14694 whole entry): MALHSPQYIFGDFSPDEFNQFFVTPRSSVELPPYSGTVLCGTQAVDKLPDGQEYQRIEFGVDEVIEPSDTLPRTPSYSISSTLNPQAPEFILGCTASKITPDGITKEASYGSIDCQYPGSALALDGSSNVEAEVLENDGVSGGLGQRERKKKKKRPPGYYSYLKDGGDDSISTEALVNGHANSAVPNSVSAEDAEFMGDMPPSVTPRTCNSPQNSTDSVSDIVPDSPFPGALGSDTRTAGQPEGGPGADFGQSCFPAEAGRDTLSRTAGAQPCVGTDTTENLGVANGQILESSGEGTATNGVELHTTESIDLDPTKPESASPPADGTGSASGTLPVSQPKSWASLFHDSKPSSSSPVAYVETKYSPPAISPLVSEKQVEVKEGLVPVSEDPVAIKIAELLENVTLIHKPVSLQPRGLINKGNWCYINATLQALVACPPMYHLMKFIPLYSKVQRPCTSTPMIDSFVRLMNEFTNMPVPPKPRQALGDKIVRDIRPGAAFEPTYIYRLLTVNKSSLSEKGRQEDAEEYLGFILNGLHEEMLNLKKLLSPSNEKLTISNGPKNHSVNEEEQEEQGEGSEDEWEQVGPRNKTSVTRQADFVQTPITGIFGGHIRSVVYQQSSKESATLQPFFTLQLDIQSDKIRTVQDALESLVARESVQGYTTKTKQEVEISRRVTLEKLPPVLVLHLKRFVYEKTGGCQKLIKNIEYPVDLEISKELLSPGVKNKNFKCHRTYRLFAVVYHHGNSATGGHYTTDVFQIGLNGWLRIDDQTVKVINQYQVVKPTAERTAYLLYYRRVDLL

CYLD = molecular target: T2, CYLD (Homo sapiens, UniProt Q9NQC7); experiment: HAUbVS competition assay in HEK293 cell lysates, CYLD; type: biochemical; details: 12.5-200 μM
T2 sequence (Q9NQC7 1-956): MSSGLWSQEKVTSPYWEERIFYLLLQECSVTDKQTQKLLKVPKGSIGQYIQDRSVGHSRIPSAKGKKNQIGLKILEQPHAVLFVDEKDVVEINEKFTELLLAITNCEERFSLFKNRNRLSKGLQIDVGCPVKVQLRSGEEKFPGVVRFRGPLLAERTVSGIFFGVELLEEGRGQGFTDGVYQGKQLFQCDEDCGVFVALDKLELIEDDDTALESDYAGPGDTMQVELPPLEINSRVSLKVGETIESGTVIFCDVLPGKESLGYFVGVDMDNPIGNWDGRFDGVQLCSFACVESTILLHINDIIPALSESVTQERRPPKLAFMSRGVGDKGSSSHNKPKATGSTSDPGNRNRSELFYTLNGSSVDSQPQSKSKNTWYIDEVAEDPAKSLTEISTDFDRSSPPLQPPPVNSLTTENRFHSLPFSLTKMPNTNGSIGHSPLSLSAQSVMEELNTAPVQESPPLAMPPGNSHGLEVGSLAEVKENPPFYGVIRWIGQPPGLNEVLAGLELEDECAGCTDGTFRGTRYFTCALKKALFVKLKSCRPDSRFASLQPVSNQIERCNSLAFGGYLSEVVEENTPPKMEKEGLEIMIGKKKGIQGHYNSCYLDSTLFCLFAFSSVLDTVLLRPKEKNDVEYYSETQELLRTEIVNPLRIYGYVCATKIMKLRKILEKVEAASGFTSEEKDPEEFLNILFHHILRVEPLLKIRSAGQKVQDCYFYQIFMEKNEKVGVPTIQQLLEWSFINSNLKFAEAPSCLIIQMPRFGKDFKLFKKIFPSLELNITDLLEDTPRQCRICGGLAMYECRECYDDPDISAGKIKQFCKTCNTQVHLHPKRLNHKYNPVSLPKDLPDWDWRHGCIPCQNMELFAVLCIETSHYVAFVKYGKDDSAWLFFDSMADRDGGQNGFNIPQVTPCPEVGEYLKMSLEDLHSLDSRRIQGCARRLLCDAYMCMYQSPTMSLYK

UCH-L3 = molecular target: T3, UCH-L3 (Homo sapiens, UniProt P15374); experiment: HAUbVS competition assay in HEK293 cell lysates, UCH-L3; type: biochemical; details: 12.5-200 μM
T3 sequence (P15374 1-230): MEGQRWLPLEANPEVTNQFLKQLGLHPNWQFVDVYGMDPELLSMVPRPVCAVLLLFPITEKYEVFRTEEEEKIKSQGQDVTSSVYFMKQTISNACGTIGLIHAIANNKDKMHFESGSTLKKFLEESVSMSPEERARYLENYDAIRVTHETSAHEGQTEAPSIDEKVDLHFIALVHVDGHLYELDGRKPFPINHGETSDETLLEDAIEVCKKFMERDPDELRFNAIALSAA

USP7 [4] = molecular target: T1, USP7; experiment: Time-dependent pre-incubation experiment with USP7, Ub-AMC; type: biochemical; design: Full-length wild-type human USP7 and its catalytic mutant; His tag (pFastBac-HT vector) (N); made in house; host or cells: Spodoptera frugiperda Sf9 (or High Five) insect cells, baculovirus
Experimental: To better understand the mechanism of inhibition of USP7 by our USP7-specific compounds, several experiments were performed. […] […].

USP7 [5] = molecular target: T1, USP7; experiment: Reversibility of USP7 inhibition after G50 gel filtration; type: biochemical; design: Full-length wild-type human USP7 and its catalytic mutant; His tag (pFastBac-HT vector) (N); made in house; host or cells: Spodoptera frugiperda Sf9 (or High Five) insect cells, baculovirus; details: 100 μM, 4 h at room temperature, USP7 100 pM
Experimental: The reversibility of inhibition was next determined by measuring the recovery of enzymatic activity after gel filtration. […] We passed some of each sample through a G50 gel filtration system (Sephadex, G50 superfine, Sigma Aldricht). The deubiquitinating activity of the G50 eluates was assessed with the Ub-AMC substrate, as described above, and compared with that of samples not subjected to G50 filtration. The reactions were monitored using the PHERAstar (BMG Labtech).

| Compound | GI50 [1] | binding to USP7 under dissociating conditions (USP7 [2]) | other results |
| --- | --- | --- | --- |
| O=C(CCc1ccccc1)N1CCC(O)(Cn2cnc3ccccc3c2=O)CC1 [Example 1, 3-{[4-hydroxy-1-(3-phenylpropanoyl)piperidin-4-yl]methyl}-3,4-dihydroquinazolin-4-one] | > 500 µM | no binding was observed |  |
| O=C(CCc1ccccc1)N1CCC(O)(Cn2cnc3cc(Cl)ccc3c2=O)CC1 [Example 2, 7-chloro-3-{[4-hydroxy-1-(3-phenylpropanoyl)piperidin-4-yl]methyl}-3,4-dihydroquinazolin-4-one] | 67 µM | no binding was observed | blocking of HAUbVS labeling of USP7 (anti-USP7 antibody) (USP7 [3]): efficiently blocked labeling of USP7; anti-HA immunoblot band at the size corresponding to HA-Ub-VS-USP7 (USP7 [3]): almost completely eliminated; blocking of HAUbVS labeling of USP10 (USP10): without any cross-reaction; blocking of HAUbVS labeling of CYLD (CYLD): without any cross-reaction; blocking of HAUbVS labeling of UCH-L3 (UCH-L3): without any cross-reaction; time dependence of USP7 inhibition (USP7 [4]; 100 μM, pre-incubation 30 min, 1 h, 2 h, 4 h, 6 h): not a time-dependent inhibitor; inhibition at 100 µM (USP7 [4]; USP7 100 pM, pre-incubation 30 min to 6 h, Ub-AMC): ~75% |
| O=C(CCC1CCCC1)N1CCC(O)(Cn2cnc3ccccc3c2=O)CC1 [Example 3, 3-{[1-(3-cyclopentylpropanoyl)-4-hydroxypiperidin-4-yl]methyl}-3,4-dihydroquinazolin-4-one] | 93 µM | no binding was observed | recovery of USP7 activity after G50 gel filtration (USP7 [5]): total restoration of USP7 activity |
| O=C(CCC1CCCC1)N1CCC(O)(Cn2cnc3cc(Cl)ccc3c2=O)CC1 [Example 4, 7-chloro-3-{[1-(3-cyclopentylpropanoyl)-4-hydroxypiperidin-4-yl]methyl}-3,4-dihydroquinazolin-4-one] | 19 µM |  |  |
| CC(Cc1cccs1)C(=O)N1CCC(O)(Cn2cnc3ccccc3c2=O)CC1 (stereo not drawn) [Example 5, 3-({4-hydroxy-1-[2-methyl-3-(thiophen-2-yl)propanoyl]piperidin-4-yl}methyl)-3,4-dihydroquinazolin-4-one] | 113 µM | no binding was observed | blocking of HAUbVS labeling of USP7 (anti-USP7 antibody) (USP7 [3]): efficiently blocked labeling of USP7; anti-HA immunoblot band at the size corresponding to HA-Ub-VS-USP7 (USP7 [3]): almost completely eliminated; blocking of HAUbVS labeling of USP10 (USP10): without any cross-reaction; blocking of HAUbVS labeling of CYLD (CYLD): without any cross-reaction; blocking of HAUbVS labeling of UCH-L3 (UCH-L3): without any cross-reaction |
| COc1cc2ncn(CC3(O)CCN(C(=O)C(C)C)CC3)c(=O)c2cc1OC [Example 7, 3-{[4-hydroxy-1-(2-methylpropanoyl)piperidin-4-yl]methyl}-6,7-dimethoxy-3,4-dihydroquinazolin-4-one] | > 500 µM |  |  |
| CC(Cc1cccs1)C(=O)N1CCC(O)(Cn2cnc3cc(Cl)ccc3c2=O)CC1 (stereo not drawn) [Example 11, 7-chloro-3-({4-hydroxy-1-[2-methyl-3-(thiophen-2-yl)propanoyl]piperidin-4-yl}methyl)-3,4-dihydroquinazolin-4-one] | 25 µM |  |  |
| O=C(CCc1cccs1)N1CCC(O)(Cn2cnc3ccccc3c2=O)CC1 [Example 12, 3-({4-hydroxy-1-[3-(thiophen-2-yl)propanoyl]piperidin-4-yl}methyl)-3,4-dihydroquinazolin-4-one] | 253 µM |  |  |
| CC(Cc1ccccc1)C(=O)N1CCC(O)(Cn2cnc3ccccc3c2=O)CC1 (stereo not drawn) [Example 13, 3-{[1-(2-benzylpropanoyl)-4-hydroxypiperidin-4-yl]methyl}-3,4-dihydroquinazolin-4-one] | 103 µM |  |  |
| CC(Cc1ccccc1)C(=O)N1CCC(O)(Cn2cnc3cc(Cl)ccc3c2=O)CC1 (stereo not drawn) [Example 14, 3-{[1-(2-benzylpropanoyl)-4-hydroxypiperidin-4-yl]methyl}-7-chloro-3,4-dihydroquinazolin-4-one] | 28 µM |  |  |
